{"source": "patent US9211349B2", "about": "“Molecular probes for multimodality imaging of anionic membrane surfaces” (Molecular Targeting Technologies, Inc., priority 2012, dated 2015)", "test_system": "U87MG cells", "assay": "MTT assay, cytotoxicity of paclitaxel on U87MG cells", "type": "cell-based, human", "protocol": "A U87MG human glioblastoma cell line was obtained from the American Type Culture Collection (Manassas, Va., USA). U87MG glioma cells were grown in Dulbecco's modified medium (USC Cell Culture Core, Los Angeles, Calif., USA) supplemented with 10% fetal bovine serum at 37° C. in humidified atmosphere containing 5% CO2.\nThe toxicity of paclitaxel to U87MG cells was determined by a colorimetric assay with 3-(4,5-dimethylthiazol-2-yl)-2,5-diphenyl tetrazolium bromide (MTT; Alfa Aesar). All studies were performed with triplicate samples and repeated at least three times. Briefly, cells were harvested by trypsinization, resuspended in Dulbecco's modified medium, and plated in a 96-well plate at 4,000 cells per well. After treatment with different doses of paclitaxel (ranging from 1 nM to 500 nM) for 16 hours, 22 μL of 0.5 mg/mL sterile filtered MTT was added to each well. The un-reacted dye was removed after 4 hours of incubation, and the insoluble formazan crystals were dissolved in 150 μL of DMSO. The absorbance at 490 nm was measured with a microplate reader (SpectraMax M2e, Molecular Devices, CA).\nFIG. 3 is a graph illustrating cytotoxicity of paclitaxel on U87MG cells determined by MTT assay. The best-fit 50% inhibitory concentration (IC50) values were calculated by fitting the data with nonlinear regression using Graph-Pad Prism 5.0 (Graph-Pad Software, San Diego, Calif.).", "data": [{"smiles": "CC(=O)O[C@H]1C(=O)[C@@]2(C)[C@H]([C@H](OC(=O)c3ccccc3)[C@]3(O)C[C@H](OC(=O)[C@H](O)[C@@H](NC(=O)c4ccccc4)c4ccccc4)C(C)=C1C3(C)C)[C@]1(OC(C)=O)CO[C@@H]1C[C@@H]2O", "note": "[paclitaxel]", "values": [{"measurement": "sensitivity of U87MG cells to treatment", "setting": "1 nM to 500 nM, 16 hours", "result": "sensitive"}, {"measurement": "IC50", "setting": "Homo sapiens, U-87 MG, after 16 hours of incubation", "result": 0.0614, "unit": "µM"}]}]}
